Measured values published in PubChem BioAssay AID1996.
In brackets after ≈: the same amount, converted by molar mass.

Details: buffer; pH 7.4; 200.0 µM

| Compound | solubility kinetic |
| --- | --- |
| COc1ccc(Nc2oc(-c3ccc(OC)cc3)nc2C#N)cc1 | 0.7 µg/mL (≈ 2.18 µM) |
| Nc1ccc(C(=O)NCC2(c3ccccc3)CCCC2)cc1 | 17.8 µg/mL (≈ 60.5 µM) |
| CCc1ccnc(NC(=O)Nc2ccc(OCc3ccccc3)cc2)c1 | < 0.2 µg/mL |
| CN1C(=O)C(CCC(=O)O)NC1=S (stereo unspecified) | 28.2 µg/mL (≈ 139 µM) |
| O=C(OCc1ccc(Cl)c(Cl)c1)c1cccnc1Cl | < 0.7 µg/mL |
| Cc1cnc(NC(=O)/C=C/c2ccc(Br)o2)s1 | 0.8 µg/mL (≈ 2.55 µM) |
| CC1CCCC(C)N1C(=O)COC(=O)c1ccc2ccccc2n1 (stereo unspecified) | 15.3 µg/mL (≈ 46.9 µM) |
| Cc1cc(C)c(NC(=O)Nc2ccccc2)c(C)n1 | 34.3 µg/mL (≈ 134 µM) |
| Cc1cc(NC(=O)c2cccc(S(=O)(=O)Nc3cccc(C(=O)O)c3)c2)no1 | > 60.2 µg/mL |
| FC(F)(F)c1cnc(N2CCSCC2)c(Cl)c1 | < 0.3 µg/mL |
| COc1ccc(C(C)NC(=O)C2CCCC2)cc1 (stereo unspecified) | > 37.1 µg/mL |
| CC(=O)c1c(C)[nH]c(C(=O)NCc2ccccc2F)c1C | 41.6 µg/mL (≈ 144 µM) |
| CCOC(=O)Cn1c(=O)n(Cc2ccccc2)c(=O)c2cccnc21 | 7.6 µg/mL (≈ 22.4 µM) |
| O=C(O)C1C2C=CC(C2)C1C(=O)Nc1ccc(Cl)c(Cl)c1 (stereo unspecified) | 13.4 µg/mL (≈ 41.1 µM) |
| CN(CC(=O)Nc1ccc(F)c(F)c1F)C(=O)C1CCCCC1 | > 49.3 µg/mL |
| O=C1NC(=O)C(Sc2ccccc2[N+](=O)[O-])C(=O)N1 | > 42.2 µg/mL |
| O=C(NCCc1ccccc1Cl)C1CC(=O)N(C2CCCCC2)C1 (stereo unspecified) | > 52.3 µg/mL |
| CNCCc1ccccc1 | < 0.3 µg/mL |
| O=C(CCC(=O)c1ccccc1)NCc1ccccc1 | > 40.1 µg/mL |
| CN(C)c1cccc(Oc2nc3c(c(=O)n(C)c(=O)n3C)n2C)c1 | 32.4 µg/mL (≈ 98.4 µM) |
| COc1cccc(OP(=O)(Nc2ccccc2)Oc2cccc(OC)c2)c1 | < 0.8 µg/mL |

| Compound | solubility kinetic |
| --- | --- |
| CSc1ccccc1C(=O)NCCOc1ccccc1C | > 45.2 µg/mL |
| Cc1cccc(NC(=O)NCCCCc2ccccc2)c1 | 0.4 µg/mL (≈ 1.42 µM) |
| FC(F)(F)c1cnc(COc2cc(Cl)cc(Cl)c2)c(Cl)c1 | < 0.8 µg/mL |
| O=C(COC(=O)c1c[nH]c(=O)[nH]c1=O)Nc1ccccc1F | > 46.1 µg/mL |
| Cc1ccc(S(=O)(=O)N2C(=O)CCC2C(N)=O)cc1 (stereo unspecified) | > 42.3 µg/mL |
| O=C(COc1ccccc1)Nc1ccc2oc(=O)ccc2c1 | 9.8 µg/mL (≈ 33.2 µM) |
| CCN(CC)C(=O)COC(=O)C1=NN(c2cc(C)ccc2C)C(=O)CC1 | > 53.9 µg/mL |
| Cc1ccc(CNC(=O)Nc2ccc(Cl)cc2)cc1 | < 0.3 µg/mL |
| Cn1nc(C(=O)NCC(c2cccs2)N2CCOCC2)c2ccccc2c1=O (stereo unspecified) | > 59.8 µg/mL |
| CCN1CCC(N2CCN(c3ccccc3OC)CC2)CC1 | > 45.5 µg/mL |
| CN(c1ccccc1)S(=O)(=O)c1ccc2[nH]c(=O)oc2c1 | > 45.6 µg/mL |
| CC(=O)NCCc1c[nH]c2ccc(OCc3ccccc3)cc12 | 42.4 µg/mL (≈ 137 µM) |
| CC(=O)C1=NOC2C(=O)N(c3ccccc3)C(=O)C12 (stereo unspecified) | > 38.7 µg/mL |
| CN(C)Cc1ccccc1Sc1ccc2c(c1)CCCC2.O=C(O)C(=O)O | 5.5 µg/mL |
| CC(C)OC(=O)CSc1nc(Cc2ccccc2)nc2ccccc12 | < 0.4 µg/mL |
| COc1ccc(CNC(=O)COC(=O)C(CCSC)N2C(=O)c3ccccc3C2=O)cc1 (stereo unspecified) | > 68.5 µg/mL |
| CCOC(=O)c1ccc(Nc2ncccc2[N+](=O)[O-])cc1 | 1 µg/mL (≈ 3.48 µM) |
| Cc1sc(N2C(=O)C3C(C2=O)[C@H]2C=C[C@@H]3C2)c(C#N)c1C (stereo partly specified) | 25.6 µg/mL (≈ 85.8 µM) |
| Cc1cc2cc(CNC(=O)Nc3ccccc3)ccc2[nH]1 | 15.6 µg/mL (≈ 55.8 µM) |
| CC(C)(CNc1ccc(C(F)(F)F)cc1[N+](=O)[O-])N1CCOCC1 | 5.5 µg/mL (≈ 15.8 µM) |
| O=C(OCC(=O)c1ccc[nH]1)c1ccccc1 | 32.2 µg/mL (≈ 140 µM) |

| Compound | solubility kinetic |
| --- | --- |
| Cc1ccc(C23CC4CC(CC(C(=O)NC(C(=O)O)C(C)C)(C4)C2)C3)cc1 (stereo unspecified) | 48.1 µg/mL (≈ 130 µM) |
| COc1ccc2[nH]cc(CCNC(=O)Nc3ccccc3C)c2c1 | 10.4 µg/mL (≈ 32.2 µM) |
| COc1ccc(-c2ncncc2-c2ccccc2)c(O)c1 | 11.6 µg/mL (≈ 41.7 µM) |
| Cc1c(C=O)c2ccccc2n1CCOc1ccccc1F | < 0.6 µg/mL |
| COc1ccc(NC(=S)N2CCc3cc(OC)c(OC)cc3C2)cc1 | 1.5 µg/mL (≈ 4.18 µM) |
| Cc1cccc(OCC(=O)NCCNC(=O)c2ccccn2)c1 | > 47 µg/mL |
| Cc1ccc(C)c(NC(=O)/C(C#N)=C/c2ccc[nH]2)c1 | 3.7 µg/mL (≈ 13.9 µM) |
| COc1cc(C(=O)NCCSc2ccccc2)cc(OC)c1OC | 49.9 µg/mL (≈ 144 µM) |
| Cc1ccnc(SC2CC(=O)N(c3ccc(F)cc3)C2=O)n1 (stereo unspecified) | 38 µg/mL (≈ 120 µM) |
| Fc1cccc(Cl)c1CNCc1cccnc1 | > 37.6 µg/mL |
| CC(=O)Nc1ccccc1NC(=O)c1ccccc1-c1ccccc1 | > 49.6 µg/mL |
| Cc1ccc(NC(=S)NC(=O)c2cncc(Br)c2)c(C)c1 | 4.5 µg/mL (≈ 12.4 µM) |
| O=c1c2cc([N+](=O)[O-])ccc2nc2n1CCC2 | > 34.7 µg/mL |
| O=C(O)C1=C(Nc2ccccc2)OCC1=O | > 32.9 µg/mL |
| CSc1ccc(S(=O)(=O)Nc2ccc3c(c2)NC(=O)CC3)cc1 | 8 µg/mL (≈ 23 µM) |
| O=C1NC(C(F)(F)F)(C(F)(F)F)N=C2SC=CN12 | 41.6 µg/mL (≈ 143 µM) |
| CC1=NOC(=O)/C1=C/c1ccc(O)c(Br)c1 | 32.4 µg/mL (≈ 115 µM) |
| CC1(C)Cc2nc(-c3ccccc3)nc(SCC(=O)N3CCCC3)c2CO1 | 22.3 µg/mL (≈ 58.1 µM) |
| CCN(CC)S(=O)(=O)c1ccc(N2CCCC2)c(NC(=O)c2ccc([N+](=O)[O-])o2)c1 | 49.4 µg/mL (≈ 113 µM) |
